Entries after “also recorded” stand apart in the source; their conditions may differ.

Data set [1] deals with glomerular cells (TUNEL-positive nuclei). Put plainly: Glomerular TUNEL apoptosis assay in kidney transplant biopsies. The format is in vivo, human. The following applies: renal transplant recipients with lower eGFR, sirolimus-treated versus not treated. As to the method: (§1) The study was conducted on 80 renal transplant recipients followed at the Renal Transplant Department of Necker hospital.
Apoptosis was detected in 4-μm sections of paraffin-embedded kidneys by TUNEL assay using the In Situ Cell Death Detection kit (Roche) according to the manufacturer's protocol. The glomerular apoptotic index was calculated as the number of glomeruli with at least one TUNEL-positive nuclei for the total number of glomeruli. All the microscopic fields of a whole kidney section were quantified.

Data set [2] in a line: Urinary albumin excretion in renal transplant recipients. The format is in vivo, human. As to the method:
as §1
For human samples, urinary creatinine and albumin were determined using a Hitachi 917 analyzer (Roche Diagnostics), whereas plasma creatinine and sirolimus were evaluated using a Synchron Cx4 autoanalyser (Beckman Coulter) and high-performance liquid chromatography, respectively.

For `CO[C@H]1C[C@@H]2CC[C@@H](C)[C@@](O)(O2)C(=O)C(=O)N2CCCC[C@H]2C(=O)O[C@H]([C@H](C)C[C@@H]2CC[C@@H](O)[C@H](OC)C2)CC(=O)[C@H](C)/C=C(\C)[C@@H](O)[C@@H](OC)C(=O)[C@H](C)C[C@H](C)/C=C/C=C/C=C/1C` [sirolimus], in data set [1], the “glomerular apoptosis (TUNEL)” value is “marked increased of apoptosis; also recorded: increased glomerular apoptosis”. The “development of albuminuria / proteinuria upon sirolimus treatment” value in data set [2] (cohort of kidney transplant recipients at different stages of renal failure) is given as “only patients with severe nephron reduction developed albuminuria; also recorded: marked proteinuria”. Further, the “urinary albumin excretion, serial follow-up” value in data set [2] (patient 1, on sirolimus administration) is on record as “severe albuminuria”; in data set [2] (patient 2, after removal of sirolimus), “reversed albuminuria”.

The values above are taken from patent US20150018383A1, “BIOMARKERS OF RENAL DISORDERS” (Institut National de la Sante et de la Recherche Medicale …, priority 2011, published 2015).
